Data from patent US6319702A, “Nucleic acids encoding mutant human carboxypeptidase A enzymes” (Glaxo Wellcome, Inc., priority 1993, dated 2001).
Read-outs that look alike come from different tables or passages of the source.

Assays:
[1] = Stability and biodistribution of prodrugs in vivo (HPLC of plasma and tissues); design: species or system mice (CD-1 nude; BALB/C where indicated)
[2] = molecular target: T1, wild type human carboxypeptidase A1 (Homo sapiens, UniProt P15085); assay: Enzyme kinetics of prodrugs with wild type human carboxypeptidase A1 (coupled assay); format: biochemical
T1 sequence (P15085 111-419): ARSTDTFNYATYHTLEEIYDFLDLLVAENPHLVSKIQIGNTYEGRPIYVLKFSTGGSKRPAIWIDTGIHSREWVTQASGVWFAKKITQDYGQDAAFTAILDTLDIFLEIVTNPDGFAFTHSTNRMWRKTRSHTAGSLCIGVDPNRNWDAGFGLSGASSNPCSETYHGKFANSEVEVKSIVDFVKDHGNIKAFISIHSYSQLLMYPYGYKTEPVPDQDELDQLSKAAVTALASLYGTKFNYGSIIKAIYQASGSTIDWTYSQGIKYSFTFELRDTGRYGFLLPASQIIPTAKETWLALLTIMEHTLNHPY
How it was run: (§1)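 Coupled spectrophotometric assay: released methotrexate converted by excess carboxypeptidase G (17 milliunits) to its pteroate, followed at 315 nm (Δε 9.57 mM^-1 cm^-1). 25° C in 25 mM tris-HCl, 100 mM NaCl, pH 7.4; reaction started with wild-type or mutant carboxypeptidase A. Kinetic constants from initial velocities by Michaelis-Menten analysis.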

268ala = assay: Enzyme kinetics of prodrugs with 268ala mutant of human CPA1 (coupled assay); format: biochemical; settings: 25° C., pH 7.4
How it was run: as §1

268gly = assay: Enzyme kinetics of prodrugs with 268gly mutant of human CPA1 (coupled assay); format: biochemical
How it was run: as §1

mutant enzyme = assay: Substrate behaviour with mutant enzyme; format: biochemical, human
Source text: This type of compound is not useful for ADEPT.

[3] = mouse, in vivo, iv
in vivo = settings: mouse, iv

CN(Cc1cnc2nc(N)nc(N)c2n1)c1ccc(C(=O)N[C@@H](CCC(=O)O)C(=O)N[C@@H](Cc2ccc(O)c(C3CCCC3)c2)C(=O)O)cc1 [Prodrug 13, N-(4-(((2,4-diamino-6-pteridinyl)methyl)methyamino)benzoyl)-L-glutam-1-yl-3-cyclopentyl-L-tyrosine]
concentration of prodrug in cecum ([1]; CECUM, 30 min, 50 mg/kg i.p. or i.v., CD-1 nude mice): 14.4 nmol/g
concentration of prodrug in cecum ([1]; CECUM, 120 min, 50 mg/kg i.p. or i.v., CD-1 nude mice): 4.8 nmol/g
concentration of prodrug in feces ([1]; FECES, 30 min, 50 mg/kg i.p. or i.v., CD-1 nude mice): 665.8 nmol/g
concentration of prodrug in feces ([1]; FECES, 120 min, 50 mg/kg i.p. or i.v., CD-1 nude mice): 738.4 nmol/g
concentration of prodrug in kidney ([1]; KIDNEY, 30 min, 50 mg/kg i.p. or i.v., CD-1 nude mice): 3.7 nmol/g
concentration of prodrug in kidney ([1]; KIDNEY, 120 min, 50 mg/kg i.p. or i.v., CD-1 nude mice): 0.5 nmol/g
concentration of prodrug in large intestine ([1]; LARGE INTESTINE, 30 min, 50 mg/kg i.p. or i.v., CD-1 nude mice): 7.9 nmol/g
concentration of prodrug in large intestine ([1]; LARGE INTESTINE, 120 min, 50 mg/kg i.p. or i.v., CD-1 nude mice): 12.5 nmol/g
concentration of prodrug in liver ([1]; LIVER, 30 min, 50 mg/kg i.p. or i.v., CD-1 nude mice): 47.7 nmol/g
concentration of prodrug in liver ([1]; LIVER, 120 min, 50 mg/kg i.p. or i.v., CD-1 nude mice): 129.0 nmol/g
concentration of prodrug in small intestine ([1]; SMALL INTESTINE, 30 min, 50 mg/kg i.p. or i.v., CD-1 nude mice): 373.7 nmol/g
concentration of prodrug in small intestine ([1]; SMALL INTESTINE, 120 min, 50 mg/kg i.p. or i.v., CD-1 nude mice): 322.1 nmol/g
concentration of prodrug in spleen ([1]; SPLEEN, 30 min, 50 mg/kg i.p. or i.v., CD-1 nude mice): 0.6 nmol/g
concentration of prodrug in spleen ([1]; SPLEEN, 120 min, 50 mg/kg i.p. or i.v., CD-1 nude mice): 0.2 nmol/g
stability in vivo (in words) ([1]; mice, 50 mg/kg): stable in vivo
remaining at 0.5 h ([1]; mouse, cecum, 50 mg/kg, CECUM, 30 min, 50 mg/kg i.p. or i.v., CD-1 nude mice, read-out: stability: percentage of material observed as intact prodrug, cecum): 100%
remaining at 2 h ([1]; mouse, cecum, 50 mg/kg, CECUM, 120 min, 50 mg/kg i.p. or i.v., CD-1 nude mice, read-out: stability: percentage of material observed as intact prodrug, cecum): 100%
remaining at 0.5 h ([1]; mouse, feces, 50 mg/kg, FECES, 30 min, 50 mg/kg i.p. or i.v., CD-1 nude mice, read-out: stability: percentage of material observed as intact prodrug, feces (converted)): 100%
remaining at 2 h ([1]; mouse, feces, 50 mg/kg, FECES, 120 min, 50 mg/kg i.p. or i.v., CD-1 nude mice, read-out: stability: percentage of material observed as intact prodrug, feces): 100%
remaining at 0.5 h ([1]; mouse, kidney, 50 mg/kg, KIDNEY, 30 min, 50 mg/kg i.p. or i.v., CD-1 nude mice, read-out: stability: percentage of material observed as intact prodrug, kidney): 100%
remaining at 2 h ([1]; mouse, kidney, 50 mg/kg, KIDNEY, 120 min, 50 mg/kg i.p. or i.v., CD-1 nude mice, read-out: stability: percentage of material observed as intact prodrug, kidney): 100%
remaining at 0.5 h ([1]; mouse, large intestine, 50 mg/kg, LARGE INTESTINE, 30 min, 50 mg/kg i.p. or i.v., CD-1 nude mice, read-out: stability: percentage of material observed as intact prodrug, large intestine): 100%
remaining at 2 h ([1]; mouse, large intestine, 50 mg/kg, LARGE INTESTINE, 120 min, 50 mg/kg i.p. or i.v., CD-1 nude mice, read-out: stability: percentage of material observed as intact prodrug, large intestine): 100%
remaining at 0.5 h ([1]; mouse, liver, 50 mg/kg, LIVER, 30 min, 50 mg/kg i.p. or i.v., CD-1 nude mice, read-out: stability: percentage of material observed as intact prodrug, liver (converted)): 100%
remaining at 2 h ([1]; mouse, liver, 50 mg/kg, LIVER, 120 min, 50 mg/kg i.p. or i.v., CD-1 nude mice, read-out: stability: percentage of material observed as intact prodrug, liver): 100%
concentration at 0.5 h ([1]; mouse, plasma, 50 mg/kg, PLASMA, 30 min, 50 mg/kg i.p. or i.v., CD-1 nude mice, read-out: concentration of prodrug in plasma): 3300 nM
remaining at 0.5 h ([1]; mouse, plasma, 50 mg/kg, PLASMA, 30 min, 50 mg/kg i.p. or i.v., CD-1 nude mice, read-out: stability: percentage of material observed as intact prodrug, plasma): 100%
concentration at 2 h ([1]; mouse, plasma, 50 mg/kg, PLASMA, 120 min, 50 mg/kg i.p. or i.v., CD-1 nude mice, read-out: concentration of prodrug in plasma): 600 nM
remaining at 2 h ([1]; mouse, plasma, 50 mg/kg, PLASMA, 120 min, 50 mg/kg i.p. or i.v., CD-1 nude mice, read-out: stability: percentage of material observed as intact prodrug, plasma): 100%
remaining at 0.5 h ([1]; mouse, small intestine, 50 mg/kg, SMALL INTESTINE, 30 min, 50 mg/kg i.p. or i.v., CD-1 nude mice, read-out: stability: percentage of material observed as intact prodrug, small intestine): 100%
remaining at 2 h ([1]; mouse, small intestine, 50 mg/kg, SMALL INTESTINE, 120 min, 50 mg/kg i.p. or i.v., CD-1 nude mice, read-out: stability: percentage of material observed as intact prodrug, small intestine): 100%
remaining at 0.5 h ([1]; mouse, spleen, 50 mg/kg, SPLEEN, 30 min, 50 mg/kg i.p. or i.v., CD-1 nude mice, read-out: stability: percentage of material observed as intact prodrug, spleen): 100%
remaining at 2 h ([1]; mouse, spleen, 50 mg/kg, SPLEEN, 120 min, 50 mg/kg i.p. or i.v., CD-1 nude mice, read-out: stability: percentage of material observed as intact prodrug, spleen): 100%
human CPA catalyzed reaction (in words) [2]: not measureable
kcat/Km for human CPA1 compared with that of the L-phenylalanine prodrug (in words) [2]: much lower
substrate for wild type CPA (in words) [2]: not for the wild type enzyme
kcat (symbol ND) ([2]; Human CPA1, rate too slow to assay): ND (not determined; rate to slow assay. kcat ≤ 0.0005/sec.)
Km (268ala): 50 µM
kcat (268ala): 0.0006 s⁻¹
kcat/Km (268gly; 268Gly): 180000 M⁻¹ s⁻¹
Km (268gly; 268gly, 25° C., pH 7.4): 18 µM
kcat (268gly; 268gly, 25° C., pH 7.4): 3 s⁻¹
substrate for a mutant enzyme (in words) (mutant enzyme): good substrates for a mutant enzyme
maximum tolerated dose (MTD) [3]: > 50 mg/kg
MTD (in vivo): ≥ 50 mg/kg
